Earlier results on two substances are cited in US20040258731A1, “Preparation approriate for cartilage tissue formation” (priority 2001, published 2004).

For data set [1], the system named is articular cartilage. Particulars: experimental arthritis model animals, intraarticular administration.
The subject of data set [2] is articular cartilage.

Regarding “TGF-β1: an isoform of TGF-β (Transforming Growth Factor β)”, the “arthritis-induced loss of proteoglycans in articular cartilage” value in data set [1] is reported as “suppresses arthritis-induced loss of proteoglycans in articular cartilage”. Further, in data set [2] (intraarticularly administered), the chondrogenesis result is “promote chondrogenesis”. As for TGF-β, the synovitis entry in data set [2] (in vivo) is given as “marked synovitis”.
